Measurements published in ChEMBL document CHEMBL1240448, “Synthesis of N-methyl-bisindolylmaleimide amino acid methyl ester conjugates and cytotoxicity study” (Eur J Med Chem, 2010).

Legend:
HCT-8 = assay: Cytotoxicity against human HCT8 cells after 96 hrs by MTT assay; settings: HCT-8, 96 h
MCF7 = assay: Cytotoxicity against human MCF7 cells after 96 hrs by MTT assay; settings: MCF7, 96 h
A549 = assay: Cytotoxicity against human A549 cells after 96 hrs by MTT assay; settings: A549, 96 h
A2780 = assay: Cytotoxicity against human A2780 cells after 96 hrs by MTT assay; settings: A2780, 96 h
BGC-823 = assay: Cytotoxicity against human BGC823 cells after 96 hrs by MTT assay; settings: BGC-823, 96 h
Bel-7402 = assay: Cytotoxicity against human Bel7402 cells after 96 hrs by MTT assay; settings: Bel-7402, 96 h

| Structure (SMILES) | IC50 (HCT-8) [µM] | IC50 (MCF7) [µM] | IC50 (A549) [µM] | IC50 (A2780) [µM] | IC50 (BGC-823) [µM] | IC50 (Bel-7402) [µM] |
| --- | --- | --- | --- | --- | --- | --- |
| COC(=O)CNC(=O)Cn1cc(C2=C(c3c[nH]c4ccccc34)C(=O)N(C)C2=O)c2ccccc21 | 22.9 | 36 | 78.3 | 33.9 | 88.4 | 28.4 |
| COC(=O)[C@@H](CO)NC(=O)Cn1cc(C2=C(c3c[nH]c4ccccc34)C(=O)N(C)C2=O)c2ccccc21 | 22.9 | 24.5 | 37.9 | 23.2 | 28.9 | 67.2 |
| COC(=O)CCNC(=O)Cn1cc(C2=C(c3c[nH]c4ccccc34)C(=O)N(C)C2=O)c2ccccc21 | 50.9 | 47.8 | 37.6 | 44.5 | 44.9 | 28.4 |
| CC[C@H](C)[C@@H](NC(=O)Cn1cc(C2=C(c3c[nH]c4ccccc34)C(=O)N(C)C2=O)c2ccccc21)C(=O)OC | > 100 | > 100 | > 100 | > 100 | > 100 | > 100 |
| COC(=O)[C@H](NC(=O)Cn1cc(C2=C(c3c[nH]c4ccccc34)C(=O)N(C)C2=O)c2ccccc21)C(C)C | 25.8 | 16 | 30.6 | 23.8 | 48.2 | 4.01 |
| COC(=O)C(Cc1c[nH]c2ccccc12)NC(=O)Cn1cc(C2=C(c3c[nH]c4ccccc34)C(=O)N(C)C2=O)c2ccccc21 (single isomer, unassigned) | 9.19 | 4.83 | 45.2 | 5.39 | 3.73 | 4.11 |
| COC(=O)C(Cc1ccccc1)NC(=O)Cn1cc(C2=C(c3c[nH]c4ccccc34)C(=O)N(C)C2=O)c2ccccc21 (single isomer, unassigned) | 72.4 | 95.3 | 88.1 | 77.9 | 98 | 96.7 |
| COC(=O)C(Cc1ccc(O)c(O)c1)NC(=O)Cn1cc(C2=C(c3c[nH]c4ccccc34)C(=O)N(C)C2=O)c2ccccc21 (single isomer, unassigned) | > 100 | > 100 | > 100 | > 100 | > 100 | > 100 |
| COC(=O)C(Cc1ccc(O)cc1)NC(=O)Cn1cc(C2=C(c3c[nH]c4ccccc34)C(=O)N(C)C2=O)c2ccccc21 (single isomer, unassigned) | 93.2 | 51.7 | > 100 | > 100 | > 100 | 28.1 |
| COC(=O)C(C)NC(=O)Cn1cc(C2=C(c3c[nH]c4ccccc34)C(=O)N(C)C2=O)c2ccccc21 (single isomer, unassigned) | 21.4 | 15.3 | 30.5 | 15.8 | 60.4 | 9.34 |
| COC(=O)C(CC(C)C)NC(=O)Cn1cc(C2=C(c3c[nH]c4ccccc34)C(=O)N(C)C2=O)c2ccccc21 (single isomer, unassigned) | 37.8 | 37.4 | > 100 | 38.5 | 45.5 | 42.4 |
| COC(=O)CC(NC(=O)Cn1cc(C2=C(c3c[nH]c4ccccc34)C(=O)N(C)C2=O)c2ccccc21)C(=O)OC (single isomer, unassigned) | 23.4 | 25.8 | 74.2 | 15.4 | 24.6 | 9.36 |
| COC(=O)CCC(NC(=O)Cn1cc(C2=C(c3c[nH]c4ccccc34)C(=O)N(C)C2=O)c2ccccc21)C(=O)OC (single isomer, unassigned) | 29.2 | 23.4 | 73.7 | 32.3 | 25 | 47.4 |
| COC(=O)[C@H](NC(=O)Cn1cc(C2=C(c3c[nH]c4ccccc34)C(=O)N(C)C2=O)c2ccccc21)[C@@H](C)O (single isomer, unassigned) | 23.4 | 22.9 | 25.7 | 21.4 | 23.3 | > 100 |
